As usually defined, the Kd is a measure of binding affinity in units of concentration. Read a high Kd as lower affinity.

The text below walks through data of PMC11497106, “GJB2 Promotes HCC Progression by Activating Glycolysis Through Cytoplasmic Translocation and Generating a Suppressive Tumor Microenvironment Based on Single Cell RNA Sequencing” (Advanced Science, 2024).

For the assay, the target named is T1, GJB2 (Gap junction protein beta-2; Connexin 26, Cx26); GFP-GJB2 (Homo sapiens, UniProt P29033).
T1 construct: 7QEQ is printed as human GJB2 for docking only
Put plainly: microscale thermophoresis (Monolith NT.[…]), GFP-GJB2 in HEK293T lysate. The class given is binding.

In the case of `O=C(/C=C/c1ccc(O)c2c1[C@H](C(=O)O[C@H](Cc1ccc(O)c(O)c1)C(=O)O)[C@@H](c1ccc(O)c(O)c1)O2)O[C@H](Cc1ccc(O)c(O)c1)C(=O)O` [Salvianolic acid B], binding was characterised by a dissociation constant (Kd) of 8.52 µM.
